Like-named read-outs stand apart in the source and are kept apart here.
Legend:
hTGR5 [1] = biological target: T1, hTGR5 (Homo sapiens (Human), UniProt Q8TDU6); experiment: HTR-FRET intracellular cAMP assay in NCI-H716 cells; format: cell-based; conditions: Table 2
hTGR5 [2] = biological target: T1, hTGR5; experiment: Cross species TGR5 activity, CHO cells, human; format: cell-based
mTGR5 = mTGR5 (Mus musculus (Mouse), UniProt Q80SS6); experiment: Cross species TGR5 activity, CHO cells, mouse; format: cell-based
rTGR5 = rTGR5 (Rattus norvegicus (Rat), UniProt Q80T02); experiment: Cross species TGR5 activity, CHO cells, rat; format: cell-based
dTGR5 = experiment: Cross species TGR5 activity, CHO cells, dog; format: cell-based
[3] = tested on: nuclear receptors LXRP, PXR, CAR, PPARα, PPARγ, RAR, RARα, VDR, TR, PR, RXR, GR, and ER; experiment: Nuclear receptor selectivity profile (AlphaScreen); format: biochemical; conditions: for Activation of nuclear receptor panel, agonist mode: dose response to 200 μM; for Activity on nuclear receptor panel, antagonist mode: fixed concentration at 10 μM
Procedure: Using the AlphaScreen assay, the selectivity of a compound of the invention against the following nuclear receptors involved in the metabolic pathways can be evaluated: LXRP, PXR, CAR, PPARα, PPARα, PPARγ, RAR, RARα, VDR, TR, PR, RXR, GR, and ER.
Compounds L1, 3, 5, 6 and 7 were tested against the panel of available nuclear receptor in both agonist and antagonist mode.

[4] = tested on: FXR target genes: BSEP, SHP, OSTβ and CYP7A1; experiment: FXR target gene panel, quantitative RT-PCR in HepG2 cells; format: cell-based; conditions: stimulation for 18 hours
Procedure: To evaluate the capacity of a compound of the invention to modulate FXR target genes, quantitative RT-PCR assays are performed. HepG2 cells are selected as a relevant cell line to determine whether a compound of the invention can regulate the endogenous FXR genetic network. The ability of a compound of the invention to induce FXR target genes is assessed by isolating total RNA from cells treated overnight with 1 μM of compounds A, B, and a compound of the invention.
FXR regulates the expression of several target genes involved in BA homeostasis. Briefly, FXR plays a central role in several metabolic pathways, including i.e., lipid metabolism, bile-acids metabolism, and carbohydrate metabolism. Regarding gene expression profiling, the genes encoding proteins involved in lipid metabolism include, e.g., APOCII, APOE, APOAI, SREBP-1C, VLDL-R, PLTP, and LPL; the genes encoding proteins involved in bile-acids metabolism include, e.g., OSTα/β, BSEP, MRP2, SHP, CYP7A1, FGF19, SULT2A1, and UGT2B4; and the genes encoding proteins involved in carbohydrate metabolism include, e.g., PGCla, PEPCK, and GLUT2. FXR target genes: BSEP, SHP, OSTβ and CYP7A1 were evaluated following stimulation of Compounds 3, 5, 6, and 7 on HepG2 cells for 18 hours. Compound L1 was used as a control.

HepG2 cells [5] = experiment: In-vitro cytotoxicity, ATP content; format: cell-based; conditions: Table 5B, HepG2
Excerpt: To evaluate in-vitro cytotoxicity of a compound of the invention, two different assay methods are employed. The assays evaluate cell viability by measuring ATP levels and cytotoxicity by measuring LDH release. […] It has been called the “molecular unit of currency” when it comes to intracellular energy transfer.
(§1) An additional method to determine the viability of cells is to detect the integrity of the membrane that defines the cellular compartmentalization. Measuring the leakage of components out of the cytoplasm, in damaged cell membranes, indicates loss of membrane integrity, and LDH release is the method used to determine common toxicity in cells. HepG2 cells are treated with a compound of the invention, and serial dilutions are performed. LCA dilutions are added to the plated cells as assay controls together with no-cell and untreated cells. The assay is performed in triplicate for each test compound concentration.

HepG2 cells [6] = experiment: In-vitro cytotoxicity, membrane integrity (LDH release); format: cell-based
Excerpt: (§2) To evaluate in-vitro cytotoxicity of a compound of the invention, two different assay methods are employed. The assays evaluate cell viability by measuring ATP levels and cytotoxicity by measuring LDH release. Adenosine Triphosphate (ATP) nucleotide represents the source of energy at the basic molecular level, as it is a multifunctional molecule that is used in every cell as a coenzyme and is an integral part of the mitochondrial DNA (Kangas, et al., Medical Biology, 1984, 62, 338-343; Crouch, et al., J Immunol. Methods, 1993, 160, 81-88; and Petty, et al., J Biolumin. Chemilumin. 1995, 10, 29-34). It has been called the “molecular unit of currency” when it comes to intracellular energy transfer.
as §1

CYP1A2 = CYP1A2 (Homo sapiens (Human), UniProt P05177); experiment: CYP450 inhibition, fluorescent substrate, recombinant baculosomes; format: in vitro ADME
Procedure: (§3) To evaluate the potential of a compound of the invention for drug-drug interactions, the six main CYP450 isoforms (CYP1A2, CYP2C9, CYP2C19, CYP2D6, CYP2E1, CYP3A4) are investigated (Obach, et al., J Pharmacol. Exp. Ther, 2006, 316, 336-348).
(§4) To determine interaction between a compound of the invention and cytochrome P450 enzymes, the compound of the invention is analyzed by its capacity to inhibit (or not) the production of a fluorescent signal, using recombinant CYP450 proteins (baculosomes; Invitrogen), substrates and inhibitors (Bidstrup, et al., Br J Clin. Pharmacol, 2003, 56, 305-14). As a positive control, a selective inhibitor for each CYP450 isoform is tested in the same plate.

CYP2C19 = CYP2C19 (Homo sapiens (Human), UniProt P33261); experiment: as above; format: in vitro ADME; conditions: read-out: CYP2C19 IC50
Procedure: as §3, §4

CYP2C9 = CYP2C9 (Homo sapiens (Human), UniProt P11712); experiment: as above; format: in vitro ADME; conditions: read-out: CYP2C9 IC50
Procedure: as §3, §4

CYP2D6 = CYP2D6 (Homo sapiens (Human), UniProt P10635); experiment: as above; format: in vitro ADME; conditions: read-out: CYP2D6 IC50
Procedure: as §3, §4

CYP2E1 = CYP2E1 (Homo sapiens (Human), UniProt P05181); experiment: as above; format: in vitro ADME; conditions: read-out: CYP2E1 IC50
Procedure: as §3, §4

CYP3A4 = CYP3A4 (Homo sapiens (Human), UniProt P08684); experiment: as above; format: in vitro ADME
Procedure: as §3, §4

hERG potassium channel = hERG potassium channel (Homo sapiens (Human), UniProt Q12809); experiment: biochemical
Excerpt: The assay is based on the assumption that the hERG potassium channel activity contributes to the resting membrane potential in permanently transfected cells, and thus a block of hERG channels should result in a depolarization of the cell membrane. The assay is designed to identify potential hERG channel blockers by producing data that accurately correlates with patch-clamp electrophysiology studies.
Membrane preparations from Chinese hamster ovary cells stably transfected with hERG potassium channel are used to evaluate the potential inhibitory effect of a compound of the invention on this channel using the Predictor™ fluorescence polarization assay. Reduction of membrane polarization as a result of inhibition of the hERG potassium channel is directly correlated with a reduction of the fluorescence polarization (FP).
An assay window more than 100 mP (millipolarization) is considered good. The non-linear regression curves are obtained by GraphPad Prism (GraphPad Software Inc.) analysis, to calculate the IC50 values.

[7] = Critical micellar concentration; format: physicochemical; conditions: determined in […] NaCl water solution
Procedure: (§5) Physiochemical properties of a compound of the invention such as water solubility, critical micellar concentration, surface tension, and LogPA were determined using methods known in the art.

[8] = 1-octanol-water partition coefficient of ionized species; format: physicochemical
Procedure: as §5

[9] = In-vitro cytotoxicity, membrane integrity (LDH release); format: cell-based; conditions: human; HepG2; read-out: Membrane Integrity (LDH measure) LC50
Excerpt: as §2, §1

[10] = Blue substrate, read-out: CYP3A4 (Blue substrate) IC50
[11] = Green substrate, read-out: CYP3A4 (Green substrate) IC50

CYP2C19, sequence (P33261 whole entry): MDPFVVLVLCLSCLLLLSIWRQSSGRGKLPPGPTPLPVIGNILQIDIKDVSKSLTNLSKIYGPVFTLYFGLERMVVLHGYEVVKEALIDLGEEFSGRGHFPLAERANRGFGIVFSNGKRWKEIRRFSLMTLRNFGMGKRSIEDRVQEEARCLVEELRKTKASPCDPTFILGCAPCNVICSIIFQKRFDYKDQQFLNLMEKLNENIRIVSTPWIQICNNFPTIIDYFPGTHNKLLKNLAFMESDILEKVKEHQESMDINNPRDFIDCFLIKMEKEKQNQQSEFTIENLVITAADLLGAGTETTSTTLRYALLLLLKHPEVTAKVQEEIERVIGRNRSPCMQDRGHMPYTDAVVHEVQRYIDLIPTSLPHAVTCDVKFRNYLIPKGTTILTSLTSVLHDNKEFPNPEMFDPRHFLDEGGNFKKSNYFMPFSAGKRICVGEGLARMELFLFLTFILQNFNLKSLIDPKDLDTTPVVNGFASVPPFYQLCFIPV
CYP1A2, sequence (P05177 whole entry, canonical isoform): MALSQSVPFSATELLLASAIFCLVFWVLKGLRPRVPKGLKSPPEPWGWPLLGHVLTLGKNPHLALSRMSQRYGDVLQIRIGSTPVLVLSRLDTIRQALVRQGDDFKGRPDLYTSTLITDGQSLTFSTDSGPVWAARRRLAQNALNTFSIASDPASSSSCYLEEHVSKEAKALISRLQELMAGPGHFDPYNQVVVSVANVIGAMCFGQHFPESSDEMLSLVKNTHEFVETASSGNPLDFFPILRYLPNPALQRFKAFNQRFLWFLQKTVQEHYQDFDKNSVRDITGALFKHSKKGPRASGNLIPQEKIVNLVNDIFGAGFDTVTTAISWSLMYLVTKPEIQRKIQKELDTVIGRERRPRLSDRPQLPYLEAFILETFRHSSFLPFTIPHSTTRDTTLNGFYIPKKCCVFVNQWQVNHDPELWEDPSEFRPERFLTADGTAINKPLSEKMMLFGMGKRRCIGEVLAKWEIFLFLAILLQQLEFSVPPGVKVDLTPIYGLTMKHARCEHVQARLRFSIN
CYP3A4, sequence (P08684 whole entry): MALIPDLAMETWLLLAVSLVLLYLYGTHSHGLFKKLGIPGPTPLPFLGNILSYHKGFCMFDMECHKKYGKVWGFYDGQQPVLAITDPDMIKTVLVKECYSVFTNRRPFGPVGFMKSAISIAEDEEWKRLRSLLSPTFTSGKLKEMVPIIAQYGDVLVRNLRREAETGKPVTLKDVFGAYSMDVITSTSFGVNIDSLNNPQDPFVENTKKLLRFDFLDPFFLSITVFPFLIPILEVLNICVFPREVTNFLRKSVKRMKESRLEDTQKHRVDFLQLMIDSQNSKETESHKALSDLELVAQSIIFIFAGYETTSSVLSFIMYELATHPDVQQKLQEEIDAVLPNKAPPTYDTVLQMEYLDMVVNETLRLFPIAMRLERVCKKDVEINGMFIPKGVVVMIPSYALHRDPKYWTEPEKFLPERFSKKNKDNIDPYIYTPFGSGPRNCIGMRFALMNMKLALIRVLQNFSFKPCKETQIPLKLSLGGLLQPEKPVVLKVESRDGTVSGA
CYP2E1, sequence (P05181 whole entry): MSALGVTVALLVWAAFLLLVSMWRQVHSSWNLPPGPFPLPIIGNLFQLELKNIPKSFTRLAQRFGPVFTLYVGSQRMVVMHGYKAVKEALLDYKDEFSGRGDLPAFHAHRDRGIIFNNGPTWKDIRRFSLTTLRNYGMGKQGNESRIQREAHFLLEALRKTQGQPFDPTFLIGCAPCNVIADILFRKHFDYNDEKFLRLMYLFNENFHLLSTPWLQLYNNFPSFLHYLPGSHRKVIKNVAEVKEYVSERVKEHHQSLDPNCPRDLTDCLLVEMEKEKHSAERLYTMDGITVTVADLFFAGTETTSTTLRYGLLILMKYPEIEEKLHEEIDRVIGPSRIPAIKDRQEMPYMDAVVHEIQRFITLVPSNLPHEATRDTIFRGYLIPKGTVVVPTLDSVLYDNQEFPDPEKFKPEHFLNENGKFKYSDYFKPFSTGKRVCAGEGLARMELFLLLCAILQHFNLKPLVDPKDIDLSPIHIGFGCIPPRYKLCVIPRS
CYP2D6, sequence (P10635 whole entry): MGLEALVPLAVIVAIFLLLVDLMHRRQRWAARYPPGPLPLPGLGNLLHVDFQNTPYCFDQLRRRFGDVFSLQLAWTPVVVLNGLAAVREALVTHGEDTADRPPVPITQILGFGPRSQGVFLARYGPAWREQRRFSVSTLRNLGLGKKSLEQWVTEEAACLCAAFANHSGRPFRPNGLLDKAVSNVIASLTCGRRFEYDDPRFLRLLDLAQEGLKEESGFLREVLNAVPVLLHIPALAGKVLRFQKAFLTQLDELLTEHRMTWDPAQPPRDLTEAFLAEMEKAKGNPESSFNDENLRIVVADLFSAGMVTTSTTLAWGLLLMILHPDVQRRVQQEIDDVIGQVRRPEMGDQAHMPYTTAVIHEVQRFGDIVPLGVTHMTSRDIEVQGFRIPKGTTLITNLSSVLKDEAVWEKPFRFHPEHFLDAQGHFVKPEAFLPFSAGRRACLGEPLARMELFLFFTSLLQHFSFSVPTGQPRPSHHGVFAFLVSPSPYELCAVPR
T1 sequence (Q8TDU6 whole entry): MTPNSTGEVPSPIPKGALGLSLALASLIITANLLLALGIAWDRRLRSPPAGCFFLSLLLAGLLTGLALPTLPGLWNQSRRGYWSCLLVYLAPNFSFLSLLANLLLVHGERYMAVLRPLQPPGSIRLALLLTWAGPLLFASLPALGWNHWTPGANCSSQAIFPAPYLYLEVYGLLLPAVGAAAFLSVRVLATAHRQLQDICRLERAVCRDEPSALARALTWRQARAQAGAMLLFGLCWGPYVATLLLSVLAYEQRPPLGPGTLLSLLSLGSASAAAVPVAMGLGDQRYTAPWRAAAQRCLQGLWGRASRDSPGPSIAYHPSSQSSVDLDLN
CYP2C9, sequence (P11712 whole entry): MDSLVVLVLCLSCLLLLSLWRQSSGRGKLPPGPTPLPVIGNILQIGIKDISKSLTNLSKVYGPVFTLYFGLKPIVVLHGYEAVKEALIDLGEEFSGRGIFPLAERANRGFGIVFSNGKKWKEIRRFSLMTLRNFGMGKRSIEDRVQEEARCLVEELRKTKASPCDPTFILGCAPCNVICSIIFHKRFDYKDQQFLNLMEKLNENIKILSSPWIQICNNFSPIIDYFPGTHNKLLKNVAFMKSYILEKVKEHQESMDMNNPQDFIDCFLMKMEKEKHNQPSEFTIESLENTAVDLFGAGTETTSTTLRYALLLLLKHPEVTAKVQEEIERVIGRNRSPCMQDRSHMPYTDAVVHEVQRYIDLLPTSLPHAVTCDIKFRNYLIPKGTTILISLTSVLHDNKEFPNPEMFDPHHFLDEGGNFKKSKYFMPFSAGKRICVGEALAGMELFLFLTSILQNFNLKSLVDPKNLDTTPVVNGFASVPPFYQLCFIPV
rTGR5, sequence (Q80T02 whole entry): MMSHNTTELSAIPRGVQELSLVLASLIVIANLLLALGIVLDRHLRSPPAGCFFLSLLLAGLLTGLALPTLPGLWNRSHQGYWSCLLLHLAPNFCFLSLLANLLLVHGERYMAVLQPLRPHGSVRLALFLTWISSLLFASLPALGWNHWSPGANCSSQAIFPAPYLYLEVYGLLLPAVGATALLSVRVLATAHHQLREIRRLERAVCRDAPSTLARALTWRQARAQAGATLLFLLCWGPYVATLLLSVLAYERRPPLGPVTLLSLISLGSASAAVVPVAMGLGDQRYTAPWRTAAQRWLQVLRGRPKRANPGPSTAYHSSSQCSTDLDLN
mTGR5, sequence (Q80SS6 whole entry): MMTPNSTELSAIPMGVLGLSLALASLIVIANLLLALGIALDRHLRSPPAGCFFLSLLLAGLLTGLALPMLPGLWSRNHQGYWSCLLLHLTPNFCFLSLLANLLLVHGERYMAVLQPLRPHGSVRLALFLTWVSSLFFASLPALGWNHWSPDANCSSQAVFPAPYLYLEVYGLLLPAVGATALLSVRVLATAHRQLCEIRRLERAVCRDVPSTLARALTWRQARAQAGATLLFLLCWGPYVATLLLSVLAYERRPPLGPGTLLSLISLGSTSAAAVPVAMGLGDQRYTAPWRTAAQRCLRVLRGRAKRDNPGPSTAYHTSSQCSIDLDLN

SMILES	HTR-FRET (cAMP) Human TGR5 EC50 (hTGR5 [1])	hTGR5 CHO EC50 (hTGR5 [2])	mTGR5 CHO EC50 (mTGR5)	rTGR5 CHO EC50 (rTGR5)	EC50 (dTGR5)	Activation of nuclear receptor panel, agonist mode [3]	Activity on nuclear receptor panel, antagonist mode [3]	Modulation of FXR target genes BSEP, SHP, OSTβ and CYP7A1 [4]	ATP Content EC50 (HepG2 cells [5])	Membrane Integrity (LDH measure) LC50 (HepG2 cells [6])	IC50 (CYP1A2)	IC50 (CYP2C19)	IC50 (CYP2C9)	IC50 (CYP2D6)	IC50 (CYP2E1)	IC50 (CYP3A4; [10])	IC50 (CYP3A4; [11])	IC50 (hERG potassium channel)	hERG potassium channel inhibition (in words) (hERG potassium channel)	LogPA−: 1-octanol-water partition coefficient as ionized species [8]	other results
CC[C@H]1[C@@H](O)C2C3CC[C@H]([C@H](C)Cc4nc(=O)o[nH]4)[C@@]3(C)C[C@H](O)C2[C@@]2(C)CC[C@@H](O)C[C@@H]12 (stereo partly drawn) [Compound 6, 3α,7α,11β-trihydroxy-6α-ethyl-22-(1,2,4-oxadiazol-5-oxo-3-yl)-23,24-bisnor-5β-cholane]	No activity	No activity	No activity	No activity	1.5 ± 0.3 µM	Neither compound activated any of the receptors	Neither compound activated any of the receptors	significantly bind to FXR in hepatic cells modulating FXR target genes	No toxicity	No toxicity	> 10 µM	> 10 µM	> 10 µM	> 10 µM	> 10 µM	> 10 µM	> 10 µM	> 100 µM	Compounds L1, 3, 5, 6 and 7 did not inhibit hERG potassium channel.	1.7	CMC: Critical Micellar Concentration [7]: 28 mM
CC[C@H]1[C@@H](O)C2C3CC[C@H]([C@H](C)CCc4nc(=O)o[nH]4)[C@@]3(C)C[C@H](O)C2[C@@]2(C)CC[C@@H](O)C[C@@H]12 (stereo partly drawn) [Compound 7, 3α,7α,11β-Trihydroxy-6α-ethyl-23-(1,2,4-oxadiazol-5-oxo-3-yl)-24-nor-5β-cholane]	No activity	No activity		No activity	7.6 ± 0.01 µM	Neither compound activated any of the receptors	Neither compound activated any of the receptors	significantly bind to FXR in hepatic cells modulating FXR target genes	No toxicity	No toxicity	> 10 µM	> 10 µM	> 10 µM	> 10 µM	> 10 µM	> 10 µM	> 10 µM	> 100 µM	Compounds L1, 3, 5, 6 and 7 did not inhibit hERG potassium channel.	2.0	EC50 (mTGR5): 9.5 ± 2 µM
CC[C@H]1[C@@H](O)C2C3CC[C@H]([C@H](C)CCC(=O)O)[C@@]3(C)C[C@H](O)C2[C@@]2(C)CC[C@@H](O)C[C@@H]12 (stereo partly drawn) [Compound L1, reference compound]			No activity	No activity		Neither compound activated any of the receptors	Neither compound activated any of the receptors		No toxicity	No toxicity	> 10 µM	> 10 µM	> 10 µM	> 10 µM	> 10 µM	> 10 µM	> 10 µM			0.84	dTGR5 CHO EC50 (dTGR5): No activity; hERG potassium channel inhibition (in words) (hERG potassium channel; Table 7 footnote): Compounds L1, 3, 5, 6 and 7 did not inhibit hERG potassium channel.; IC50 (hERG potassium channel; read-out: hERG inhibition IC50, Table 7): > 100 µM
C[C@H](CCC(=O)O)[C@H]1CC[C@H]2[C@@H]3CC[C@@H]4C[C@H](O)CC[C@]4(C)[C@H]3CC[C@]12C [LCA, lithocholic acid, reference compound]																					EC50 (HepG2 cells [5]; Homo sapiens): 75 ± 5 µM; CC50 [9]: 100 ± 5 µM
